Reference: patent publication US20240158446A1, “CYCLIC COMPOUND HAVING SELECTIVE INHIBITORY ACTION ON KRAS OVER HRAS AND NRAS” (CHUGAI SEIYAKU KABUSHIKI KAISHA, priority 2021, published 2024)
Read-outs that look alike come from different tables or passages of the source.

Legend:
[1] = tested on: human lung cancer strain NCI-H441;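 also: cell proliferation inhibition after four days measured by CellTiter-Glo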
[2] = target: GDP-bound NRAS wild-type protein (Homo sapiens, UniProt P01111); assay: Binding to NRAS by surface plasmon resonance (SPR), Single Cycle Kinetics; settings: for NRAS/KRAS (ratio of KD value for NRAS to KD value for KRAS): SPR, GDP-bound NRAS wild-type protein vs GDP-bound KRAS wild-type protein; for NRAS/KRAS (ratio of KD value with respect to GDP-bound NRAS wild-type protein to KD value with respect to KRAS): SPR KD ratio NRAS/KRAS, class symbols
Chain of GDP-bound NRAS wild-type protein (P01111 whole entry): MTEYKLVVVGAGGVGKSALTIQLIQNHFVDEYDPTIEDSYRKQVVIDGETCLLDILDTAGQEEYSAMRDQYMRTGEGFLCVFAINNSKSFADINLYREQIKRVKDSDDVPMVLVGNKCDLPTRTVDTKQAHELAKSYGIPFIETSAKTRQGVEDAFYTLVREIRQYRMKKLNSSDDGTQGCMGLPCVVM

[3] = target: GDP-bound HRAS wild-type protein (Homo sapiens, UniProt P01112); assay: Binding to HRAS by surface plasmon resonance (SPR), Single Cycle Kinetics; settings: for HRAS/KRAS (ratio of KD value for HRAS to KD value for KRAS): SPR, GDP-bound HRAS wild-type protein vs GDP-bound KRAS wild-type protein; for HRAS/KRAS (ratio of KD value with respect to GDP-bound HRAS wild-type protein to KD value with respect to KRAS): SPR KD ratio HRAS/KRAS, class symbols
Chain of GDP-bound HRAS wild-type protein (P01112 whole entry): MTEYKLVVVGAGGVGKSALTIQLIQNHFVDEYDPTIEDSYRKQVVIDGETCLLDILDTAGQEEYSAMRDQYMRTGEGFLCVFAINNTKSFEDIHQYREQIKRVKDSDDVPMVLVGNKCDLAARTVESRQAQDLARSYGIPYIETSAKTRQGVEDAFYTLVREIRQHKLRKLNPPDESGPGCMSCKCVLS

[4] = target: GDP-bound KRAS wild-type protein (Homo sapiens, UniProt P01116); assay: Binding to KRAS by surface plasmon resonance (SPR), Single Cycle Kinetics; settings: GDP-bound KRAS wild-type protein, read-out: KRAS KD
Chain of GDP-bound KRAS wild-type protein (P01116 whole entry): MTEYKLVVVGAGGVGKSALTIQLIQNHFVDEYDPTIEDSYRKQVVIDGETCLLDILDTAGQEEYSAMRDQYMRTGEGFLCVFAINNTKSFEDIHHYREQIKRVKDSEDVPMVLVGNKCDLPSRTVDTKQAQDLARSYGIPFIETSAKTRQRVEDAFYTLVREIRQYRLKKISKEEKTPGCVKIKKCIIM

[5] = SPR, Single Cycle Kinetics, 1:1 binding model
[6] = SPR Single Cycle Kinetics, 1:1 binding model

CCO[C@@H]1C[C@H]2C(=O)NC3(CCC3)C(=O)N(C)[C@@H](C3CCCC3)C(=O)N(C)[C@H](C(=O)N3CCCC3)CC(=O)N(C)[C@@H](CC(C)C)C(=O)N[C@@H]([C@@H](C)CC)C(=O)N(C)CC(=O)N(C)[C@H]3C/C=C\CCN(C3=O)[C@@H](Cc3ccc(C(F)(F)F)cc3)C(=O)N(C)CC(=O)N[C@@H](CCc3cc(F)c(C(F)(F)F)c(F)c3)C(=O)N2C1 [PP1295, (2S,8S,12R,14S,20S,23S,27S,30S,36S,38Z)-20-cyclopentyl-8-[2-[3,5-difluoro-4-(trifluoromethyl)phenyl]ethyl]-12-ethoxy-27-isobutyl-4,19,22,26,32,35-hexamethyl-30-[(1S)-1-methylpropyl]-23-(pyrrolidine-1-carbonyl)-2-[[4-(trifluoromethyl)phenyl]methyl]spiro[1,4,7,10,16,19,22,26,29,32,35-undecazatricyclo[34.5.1.0^10,14]dotetracont-38-ene-17,1′-cyclobutane]-3,6,9,15,18,21,25,28,31,34,42-undecone]
IC50 [1]: 6.2 nM | NRAS/KRAS (ratio of KD value for NRAS to KD value for KRAS) ([2]; KD ratio class): AA (a compound having 20 or more is denoted as AA) | HRAS/KRAS (ratio of KD value for HRAS to KD value for KRAS) ([3]; KD ratio class): A (a compound having 10 or more and less than 20 is denoted as A) | Kd [4, 5]: 0.12 nM

CCOC[C@H]1C(=O)N[C@@H]([C@@H](C)CC)C(=O)N(C)CC(=O)N(C)[C@H]2C/C=C\CCN(C2=O)[C@@H](CC2CCC(F)(F)CC2)C(=O)N(C)CC(=O)N[C@@H](CCc2ccc(C(F)(F)F)c(OC)c2)C(=O)N2C[C@@H](C)C[C@H]2C(=O)NC2(CC(C)(C)C2)C(=O)N(C)[C@@H](C(CC)CC)C(=O)N(C)[C@H](C(=O)N(C)C)CC(=O)N1C [PP2458]
IC50 [1]: 80.7 nM | NRAS/KRAS (ratio of KD value for NRAS to KD value for KRAS) [2]: A (a compound having 10 or more and less than 20 is denoted as A) | HRAS/KRAS (ratio of KD value for HRAS to KD value for KRAS) [3]: A (a compound having 10 or more and less than 20 is denoted as A) | Kd ([4]; SPR, Single Cycle Kinetics): 1.3 nM

CCO[C@@H]1C[C@H]2C(=O)NC3(CCC3)C(=O)N(C)[C@@H](C3CCCC3)C(=O)N(C)[C@H](C(=O)N(C)C)CC(=O)N(C)[C@@H](CC3CC3)C(=O)N[C@@H]([C@@H](C)CC)C(=O)N(C)CC(=O)N(C)[C@H]3C/C=C\CCN(C3=O)[C@@H](CC3CCCCC3)C(=O)N(C)CC(=O)N[C@@H](CCc3cc(F)c(C(F)(F)F)c(F)c3)C(=O)N2C1 [PP1446]
IC50 [1]: 32 nM | NRAS/KRAS (ratio of KD value for NRAS to KD value for KRAS) ([2]; KD ratio class): A (a compound having 10 or more and less than 20 is denoted as A) | HRAS/KRAS (ratio of KD value for HRAS to KD value for KRAS) ([3]; KD ratio class): A (a compound having 10 or more and less than 20 is denoted as A) | Kd [4, 5]: 0.2 nM

CCC[C@H]1C(=O)N[C@@H]([C@@H](C)CC)C(=O)N(C)CC(=O)N(C)[C@H]2C/C=C\CCN(C2=O)[C@@H](Cc2ccc(C(F)(F)F)cc2)C(=O)N(C)CC(=O)N[C@@H](CCc2ccc(C(F)(F)F)c(OC)c2)C(=O)N2C[C@H](OCC)C[C@H]2C(=O)NC2(CCC2)C(=O)N(C)[C@@H](C(CC)CC)C(=O)N(C)[C@H](C(=O)N(C)C)CC(=O)N1C [PP1208]
IC50 [1]: 24.4 nM | NRAS/KRAS (ratio of KD value for NRAS to KD value for KRAS) ([2]; KD ratio class): AA (a compound having 20 or more is denoted as AA) | HRAS/KRAS (ratio of KD value for HRAS to KD value for KRAS) ([3]; KD ratio class): A (a compound having 10 or more and less than 20 is denoted as A) | Kd [4, 5]: 0.17 nM

CCC(CC)[C@H]1C(=O)N(C)[C@H](C(=O)N(C)C)CC(=O)N(C)[C@@H](COC)C(=O)N[C@@H]([C@@H](C)CC)C(=O)N(C2CC2)CC(=O)N(C)[C@H]2C/C=C\CCN(C2=O)[C@@H](CC2CCC(F)(F)CC2)C(=O)N(C)CC(=O)N[C@@H](CCc2ccc(Cl)c(Cl)c2)C(=O)N2C[C@H](OC(C)C)C[C@H]2C(=O)NC2(CC(C)(C)C2)C(=O)N1C [PP2525]
IC50 [1]: 142 nM | NRAS/KRAS (ratio of KD value with respect to GDP-bound NRAS wild-type protein to KD value with respect to KRAS) [2]: AA (a compound having 20 or more is denoted as AA) | HRAS/KRAS (ratio of KD value with respect to GDP-bound HRAS wild-type protein to KD value with respect to KRAS) [3]: A (a compound having 10 or more and less than 20 is denoted as A) | Kd [4, 6]: 3.8 nM

CCC[C@H]1C(=O)N[C@@H]([C@@H](C)CC)C(=O)N(C)CC(=O)N(C)[C@H]2C/C=C\CCN(C2=O)[C@@H](Cc2ccc(C)cc2)C(=O)N(C)CC(=O)N[C@@H](CCc2cc(F)c(C(F)(F)F)c(F)c2)C(=O)N2C[C@H](OCC)C[C@H]2C(=O)NC2(CC(C)(C)C2)C(=O)N(C)[C@@H](CC(C)(C)C)C(=O)N(C)[C@H](C(=O)N(C)C)CC(=O)N1C [PP2706]
IC50 [1]: 2.3 nM | NRAS/KRAS (ratio of KD value with respect to GDP-bound NRAS wild-type protein to KD value with respect to KRAS) [2]: A (a compound having 10 or more and less than 20 is denoted as A) | HRAS/KRAS (ratio of KD value with respect to GDP-bound HRAS wild-type protein to KD value with respect to KRAS) [3]: B (a compound having 3 or more and less than 10 is denoted as B) | Kd [4, 6]: 0.076 nM

CCC(CC)[C@H]1C(=O)N(C)[C@H](C(=O)N(C)C)CC(=O)N(C)[C@@H](COC)C(=O)N[C@@H]([C@@H](C)CC)C(=O)N(C)CC(=O)N(C)[C@H]2C/C=C\CCN(C2=O)[C@@H](Cc2ccc(C(F)(F)F)cc2)C(=O)N(C)CC(=O)N[C@@H](CCc2ccc(Cl)c(Cl)c2)C(=O)N2C[C@H](OC3CCCC3)C[C@H]2C(=O)NC2(CC(C)(C)C2)C(=O)N1C [PP2648]
IC50 [1]: 68.5 nM | NRAS/KRAS (ratio of KD value with respect to GDP-bound NRAS wild-type protein to KD value with respect to KRAS) [2]: A (a compound having 10 or more and less than 20 is denoted as A) | HRAS/KRAS (ratio of KD value with respect to GDP-bound HRAS wild-type protein to KD value with respect to KRAS) [3]: A (a compound having 10 or more and less than 20 is denoted as A) | Kd [4, 6]: 0.85 nM

CCO[C@H](C)[C@@H]1NC(=O)[C@H](CC(C)C)N(C)C(=O)C[C@@H](C(=O)N(C)C)N(C)C(=O)[C@H](C2CCCC2)N(C)C(=O)C2(CC(C)(C)C2)NC(=O)[C@@H]2C[C@H](C)CN2C(=O)[C@H](CCc2ccc(C(F)(F)F)c(OC)c2)NC(=O)CN(C)C(=O)[C@H](Cc2ccc(C)cc2)N2CC/C=C\C[C@@H](C2=O)N(C)C(=O)CN(C)C1=O [PP2412]
IC50 [1]: 21 nM | NRAS/KRAS (ratio of KD value for NRAS to KD value for KRAS) [2]: A (a compound having 10 or more and less than 20 is denoted as A) | HRAS/KRAS (ratio of KD value for HRAS to KD value for KRAS) [3]: B (a compound having 3 or more and less than 10 is denoted as B) | Kd ([4]; SPR, Single Cycle Kinetics): 0.15 nM

CCO[C@@H]1C[C@H]2C(=O)NC3(CCC3)C(=O)N(C)[C@@H](C3CCCC3)C(=O)N(C)[C@H](C(=O)N(C)C)CC(=O)N(C)[C@@H](CC(C)C)C(=O)N[C@@H]([C@@H](C)CC)C(=O)N(C)CC(=O)N(C)[C@H]3C/C=C\CCN(C3=O)[C@@H](Cc3ccc(C)cc3)C(=O)N(C)CC(=O)N[C@@H](CCc3cc(F)c(C(F)(F)F)c(F)c3)C(=O)N2C1 [PP1414, (2S,8S,12R,14S,20S,23S,27S,30S,36S,38Z)-20-cyclopentyl-8-[2-[3,5-difluoro-4-(trifluoromethyl)phenyl]ethyl]-12-ethoxy-27-isobutyl-N,N,4,19,22,26,32,35-octamethyl-30-[(1S)-1-methylpropyl]-3,6,9,15,18,21,25,28,31,34,42-undecaoxo-2-(p-tolylmethyl)spiro[1,4,7,10,16,19,22,26,29,32,35-undecazatricyclo[34.5.1.0^10,14]dotetracont-38-ene-17,1′-cyclobutane]-23-carboxamide]
IC50 [1]: 4.4 nM | NRAS/KRAS (ratio of KD value for NRAS to KD value for KRAS) ([2]; KD ratio class): A (a compound having 10 or more and less than 20 is denoted as A) | HRAS/KRAS (ratio of KD value for HRAS to KD value for KRAS) ([3]; KD ratio class): B (a compound having 3 or more and less than 10 is denoted as B) | Kd [4, 5]: 0.074 nM

CC[C@H](C)[C@@H]1NC(=O)[C@H](COC)N(C)C(=O)C[C@@H](C(=O)N(C)C)N(C)C(=O)[C@H](C2CCCC2)N(C)C(=O)C2(CC(C)(C)C2)NC(=O)[C@@H]2C[C@H](C)CN2C(=O)[C@H](CCc2ccc(C(F)(F)F)c(OC)c2)NC(=O)CN(C)C(=O)[C@H](Cc2ccc(C)cc2)N2CC/C=C\C[C@@H](C2=O)N(C)C(=O)[C@@H]2C[C@H](C)CN2C1=O [PP2386]
IC50 [1]: 28.1 nM | NRAS/KRAS (ratio of KD value for NRAS to KD value for KRAS) [2]: A (a compound having 10 or more and less than 20 is denoted as A) | HRAS/KRAS (ratio of KD value for HRAS to KD value for KRAS) [3]: B (a compound having 3 or more and less than 10 is denoted as B) | Kd ([4]; SPR, Single Cycle Kinetics): 1.2 nM

CCC[C@H]1C(=O)N[C@@H]([C@@H](C)CC)C(=O)N(C)CC(=O)N(C)[C@H]2C/C=C\CCN(C2=O)[C@@H](Cc2ccc(C)cc2)C(=O)N(C)CC(=O)N[C@@H](CCc2ccc(Cl)c(Cl)c2)C(=O)N2C[C@H](OCC)C[C@H]2C(=O)NC2(CC(C)(C)C2)C(=O)N(C)[C@@H](CC2CCC2)C(=O)N(C)[C@H](C(=O)N(C)C)CC(=O)N1C [PP2755]
IC50 [1]: 35.7 nM | NRAS/KRAS (ratio of KD value with respect to GDP-bound NRAS wild-type protein to KD value with respect to KRAS) [2]: A (a compound having 10 or more and less than 20 is denoted as A) | HRAS/KRAS (ratio of KD value with respect to GDP-bound HRAS wild-type protein to KD value with respect to KRAS) [3]: A (a compound having 10 or more and less than 20 is denoted as A) | Kd [4, 6]: 0.56 nM

CC[C@H](C)[C@@H]1NC(=O)[C@H](COC)N(C)C(=O)C[C@@H](C(=O)N(C)C)N(C)C(=O)[C@H](C2CCCC2)N(C)C(=O)C2(CC(C)(C)C2)NC(=O)[C@@H]2C[C@H](C)CN2C(=O)[C@H](CCc2ccc(C(F)(F)F)c(Cl)c2)NC(=O)CN(C)C(=O)[C@H](Cc2ccc(C)cc2)N2CC/C=C\C[C@@H](C2=O)N(C)C(=O)CN(C)C1=O [PP2502]
IC50 [1]: 7.9 nM | NRAS/KRAS (ratio of KD value for NRAS to KD value for KRAS) [2]: A (a compound having 10 or more and less than 20 is denoted as A) | HRAS/KRAS (ratio of KD value for HRAS to KD value for KRAS) [3]: A (a compound having 10 or more and less than 20 is denoted as A) | Kd ([4]; SPR, Single Cycle Kinetics): 0.065 nM
